# Molecular target: T1, HIV-1 protease (HIV-1 M:B_HXB2R, UniProt P04585)
# T1 construct: enzyme solution in MES-ALB buffer
# Experiment: HIV-1 protease inhibitor assay (particle concentration fluorescence, Pandex)
# Format: biochemical
# Settings: inhibitor at a concentration of about 7 μM; FIG. 1
# Method: The modified decapeptide is dissolved in a suitable buffer at a pH between about 5 and about 6 to form a solution at a desirable concentration, e.g. about 1.5 μg/ml. A separate solution of the protease in the same buffer is prepared at a sufficient concentration of protease to hydrolyze all substrate. To each well of a round-bottom, 96-well plate, e.g. a polystyrene microtiter plate, is added the enzyme solution followed by a buffered solution of the inhibitor compound. The solution of the inhibitor may be diluted in 20% aqueous dimethylsulfoxide when necessary for solubility. The plates are allowed to stand for about one hour at about room temperature before the substrate solution is added to each well. […] Unbound fluorescence is removed by filtration and subsequent washing with buffer. Any bound fluorescence is detected by excitation at 485 nm and reading the resulting epifluorescence at 535 nm. The amount of fluorescence indicates the extent to which the enzymatic reaction is inhibited.
# As described hereinabove the Pandex Plates used in the assay method are 96-well two-chamber plates (upper and lower chambers) wherein the chambers are separated by a […] pore size membrane. […] Any fluorescent marked cleavage fragment (unbound fluorescence) in the wells is washed from the well and out of the plate. […]
substance,measurement,value
Ac-Nal-Pro-Phe-Val-Sta-Leu-Phe-NH2,percent inhibition of the protease,100%

# — patent US5235039A, “Substrates for HIV protease” (Eli Lilly and Company, priority 1991, dated 1993)
